Assay results as given in patent US6827926B2, “Metallotetrapyrrolic photosensitizing agents for use in photodynamic therapy” (Miravant Pharmaceuticals, Inc., priority 2001, dated 2004).
pEC50: −log10 of the molar value. Like-named read-outs stand apart in the source and are kept apart here.

Key:
[1] = system: V79 (Chinese Hamster Lung Fibroblasts) cells; assay: In vitro cytotoxicity assay (light EC50, Alamar blue); assay type: cell-based; settings: Table 3 porphyrins, 24 h drug incubation, 532 nm, 1.25 J/cm^2, read-out: In Vitro EC50 Light
Summary of the method: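 V79 cells in phenol-free 5% FBS/DMEM exposed 24 h to photosensitizer at final 0.01–5.0 μM, six replicates, then washed and light-treated, with a dark plate as control. Survival by Alamar blue after 24 h dark incubation, read at 570/600 nm.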

[2] = system: normal skin of CD Hairless male rats; assay type: in vivo, rat
Summary of the method: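 Liposomal egg yolk phospholipid photosensitizer given as single i.v. tail-vein bolus at 1, 1.5 and 2 μmol/kg; skin spots irradiated with 532 nm laser (150 mW/cm^2, 150J, 1 cm) at 1, 6, 24, 48, 96 hrs post injection. Value is time of last observed skin response spot.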

[3] = system: uninjured coronary and iliac arteries; assay: Pig artery acute PDT experiments in uninjured arteries (acellularity); assay type: in vivo; settings: 532 nm light, 55 J, 125 J/cm2, 250 mW
Procedure: Those photosensitizers showing excellent efficacy in the rat carotid artery model were evaluated in more detail in the pig coronary artery model (Waksman, R., Rodriguez, J. C., Robinson, K. A., Cipolla, G. D., Crocker, I. R., Scott, N. A. King, S. B., Wilcox, J. N., Circulation, 96, 1944-1952, 1997). If vascular PDT is to be proposed as a therapy to prevent restenosis in humans due to angioplasty or stenting, then it must first be shown to be effective in a large animal model such as the swine. Porcine coronary arteries are very similar to human coronary arteries with regard to size, neointima formation, and thrombosis in response to injury.
(§1) Photosensitizers were administered systemically (at doses typically 2-3.5 mg/kg body weight, in a soybean phospholipid formulation) as a slow bolus injection in the ear vein. Drug treatments were followed (1-4 hr later) by endovascular light treatment (50-250 J/cm^2 fluence and 100-300 mW/cm^2 irradiance) in uninjured coronary (50-250 J/cm^2 fluence and 100-300 mW/cm^2 irradiance) and iliac (50-350 J/cm^2 fluence and 100-450 mW/cm^2 irradiance) arteries. In another set of experiments, animals also received balloon injuries in the coronary arteries at the time of PDT treatment. Angioplasty injuries in 2 coronary arteries were performed. Vital signs and cardiovascular parameters such as ECG, HR, BP, were monitored together with arterio-angiograms for measurements of vessel patency.
For acute experiments done in uninjured arteries, 3-5 days after the PDT experiments, animals were sacrificed and serial sections of all relevant arteries (iliacs, & coronaries) were harvested in 10% formalin and processed for histological assessment. Results of PDT at this timepoint give us an insight into the selective cellular effects of PDT on VSMC and myofibroblasts which are known to be maximally proliferating and migrating at this same time in response to a vessel wall injury—such as an angioplasty.
For longer term efficacy experiments (14 days after the PDT experiments) animals were sacrificed and serial sections of all relevant arteries (coronaries only) were harvested in 10% formalin and processed for histological assessment. Representative arterial segments underwent parafin embedding and sectioning for Hemoxylin & Eosin and/or elastin staining. Slides were prepared for microscopy histological analysis of the (i) acute cellular responses and (ii) inhibition of neointima formation following treatment. Once prepared, the slides were analyzed via microscopy for histomorphometry and effects such as medial wall acellularity, arterial wall and surrounding tissue cell death and proliferation. […] The magnitude of the inhibition was greater than any other photosensitizer drug currently used by other groups in PDT (clinically or pre-clinically), and was on the order of that only previously seen with radiation in this model. Inhibition data is averaged over the injury length within the artery.

[4] = Cardiovascular safety in pig coronary artery models (ECG, HR, BP); assay type: in vivo; settings: doses exceeding 20 mg/Kg
Procedure: as §1

COC(=O)CCC1=C(C)c2cc3[n-]c(cc4nc(cc5[n-]c(cc1n2)c(CCC(=O)OC)c5C)C=C4C)cc3C.[Cl-].[Ga+3] [Example 4, Gallium Chloride Deuteroporphyrin Dimethyl Ester]
pEC50 [1]: 6.40 | Normal skin Response (1 μmol) ([2]; rat, in vivo): 6 h | Acellularity (%) (3 days) ([3]; drug dose 1 mg/Kg): 50% | Acellularity (%) (3 days) ([3]; drug dose 2 mg/Kg): 70% | Acellularity (%) (3 days) ([3]; drug dose 3 mg/Kg): 95% | cardiotoxicity in pig coronary artery models [4]: no cardiotoxicity was observed

CCC1=C(C)C2=[N+]3C1=Cc1c(C)c(CC)c4[n]1[Ga-2]31([Cl])[n]3c(c(C)c(CCC(=O)NC)c3=CC3=[N+]1C(=C4)C(C)=C3CCC(=O)NC)=C2 [Example 121, Gallium Chloride Mesoporphyrin N-methyl Amide]
pEC50 [1]: 6.40 | Normal skin Response (1 μmol) ([2]; rat, in vivo): 6 h | Acellularity (%) (3 days) ([3]; drug dose 1 mg/Kg): 45% | Acellularity (%) (3 days) ([3]; drug dose 2 mg/Kg): 75% | Acellularity (%) (3 days) ([3]; drug dose 3 mg/Kg): 95% | cardiotoxicity in pig coronary artery models [4]: no cardiotoxicity was observed

Gallium Chloride Mesoporphyrin Dimethyl Ester [Example 1]
pEC50 [1]: 6.70 | Normal skin Response (1 μmol) ([2]; Table 3, time of last skin spot observed post injection, 1 μmol, 532 nm laser): 48 h | normal skin responses, time post drug injection ([2]; rats, drug dose 1 μmol/Kg): 48 h | Acellularity (%) (3 days) ([3]; drug dose 1 mg/Kg): 50% | Acellularity (%) (3 days) ([3]; drug dose 2 mg/Kg): 70% | Acellularity (%) (3 days) ([3]; drug dose 3 mg/Kg): 100% | cardiotoxicity in pig coronary artery models [4]: no cardiotoxicity was observed
